Results taken from ChEMBL document CHEMBL3885861, “Open TG-GATES”.

Organism: Rattus norvegicus
Experiment: Open TG-GATES - Regimen: Daily Repeat
Assay type: toxicity, organism-based, Sprague-Dawley
Parameters: regimen Daily Repeat, gender Male, age 6 weeks
Conditions: in vivo, po, 200 mg/kg, […], route gavage, dose level Middle; for KIDNEY_L / KIDNEY_R / KIDNEY_TOTAL: tissue Kidney; for LIVER: tissue Liver; for A/G / ALP / ALT / AST / BUN / CRE / Ca / Cl / DBIL / GLC / IP / K / LDH / Na / PL / RALB / TBIL / TC / TG / TP / gamma-GTP: tissue Plasma

In the case of `C[C@](N)(Cc1ccc(O)c(O)c1)C(=O)O` [METHYLDOPA], the Lym (tissue Blood, time 28 day) is reported as 81.2%, the MCH (tissue Blood, time 28 day) is reported as 19.8 pg and the MCHC (tissue Blood, time 28 day) is reported as 35.1%. It also gave an MCV (tissue Blood, time 28 day) of 56.5 fL, a Mono (tissue Blood, time 28 day) of 1.4% and a Neu (tissue Blood, time 28 day) of 15.6%. For the same compound, the PT (tissue Blood, time 28 day) was 14 s, the Plat (tissue Blood, time 28 day) was 101.7 x10_4/uL and the RBC (tissue Blood, time 28 day) was 760.8 x10_4/ul. For the same compound, the Ret (tissue Blood, time 28 day) was 2.3%, the WBC (tissue Blood, time 28 day) was 76.9 x10_2/uL and the KIDNEY_L (time 7 day) was 0.9 g. The KIDNEY_R (time 7 day) was 0.9 g, the KIDNEY_TOTAL (time 7 day) was 1.9 g and the KIDNEY_L (time 14 day) was 1.1 g. The KIDNEY_R (time 14 day) was 1 g, the KIDNEY_TOTAL (time 14 day) was 2.1 g and the KIDNEY_L (time 28 day) was 1.2 g. The KIDNEY_R (time 28 day) was 1.2 g, the KIDNEY_TOTAL (time 28 day) was 2.4 g and the LIVER (time 7 day) was 8.8 g. It also gave an LIVER (time 14 day) of 10.2 g, an LIVER (time 28 day) of 12.9 g and an A/G (time 7 day) of 0.9. For the same compound, the ALP (time 7 day) was 1381.2 IU/L, the ALT (time 7 day) was 45.4 IU/L and the AST (time 7 day) was 67.8 IU/L. For the same compound, the BUN (time 7 day) was 14.2 mg/dL, the CRE (time 7 day) was 0.2 mg/dL and the Ca (time 7 day) was 10.8 mg/dL. The Cl (time 7 day) was 107.4 meq/L, the DBIL (time 7 day) was 0.01 mg/dL and the GLC (time 7 day) was 179.8 mg/dL. The IP (time 7 day) was 7.7 mg/dL, the K (time 7 day) was 4.3 meq/L and the LDH (time 7 day) was 54.2 IU/L. For the same compound, the Na (time 7 day) was 143.4 meq/L, the PL (time 7 day) was 132.4 mg/dL and the RALB (time 7 day) was 2.7 g/dL. It also gave a TBIL (time 7 day) of 0.068 mg/dL, a TC (time 7 day) of 84.2 mg/dL and a TG (time 7 day) of 36.2 mg/dL. The TP (time 7 day) was 5.7 g/dL, the gamma-GTP (time 7 day) was 0.8 IU/L and the A/G (time 14 day) was 0.8. For the same compound, the ALP (time 14 day) was 1316.6 IU/L, the ALT (time 14 day) was 42.2 IU/L and the AST (time 14 day) was 61.8 IU/L. The BUN (time 14 day) was 12.6 mg/dL, the CRE (time 14 day) was 0.2 mg/dL and the Ca (time 14 day) was 11 mg/dL. The Cl (time 14 day) was 105.2 meq/L, the DBIL (time 14 day) was 0.002 mg/dL and the GLC (time 14 day) was 182.2 mg/dL. The IP (time 14 day) was 7.1 mg/dL, the K (time 14 day) was 4.4 meq/L and the LDH (time 14 day) was 58 IU/L. For the same compound, the Na (time 14 day) was 141.6 meq/L, the PL (time 14 day) was 137 mg/dL and the RALB (time 14 day) was 2.6 g/dL. For the same compound, the TBIL (time 14 day) was 0.054 mg/dL, the TC (time 14 day) was 87.6 mg/dL and the TG (time 14 day) was 35.2 mg/dL. The TP (time 14 day) was 5.7 g/dL, the gamma-GTP (time 14 day) was 0.8 IU/L and the A/G (time 28 day) was 0.8. The ALP (time 28 day) was 1006.8 IU/L, the ALT (time 28 day) was 39.8 IU/L and the AST (time 28 day) was 55.4 IU/L. The BUN (time 28 day) was 13.2 mg/dL, the CRE (time 28 day) was 0.2 mg/dL and the Ca (time 28 day) was 10.7 mg/dL. It also gave a Cl (time 28 day) of 104.8 meq/L, a DBIL (time 28 day) of 0.018 mg/dL and a GLC (time 28 day) of 182.2 mg/dL. It also gave an IP (time 28 day) of 6.4 mg/dL, a K (time 28 day) of 4 meq/L and an LDH (time 28 day) of 39.8 IU/L. The Na (time 28 day) was 142.8 meq/L, the PL (time 28 day) was 144.6 mg/dL and the RALB (time 28 day) was 2.7 g/dL. It also gave a TBIL (time 28 day) of 0.052 mg/dL, a TC (time 28 day) of 89.2 mg/dL and a TG (time 28 day) of 50.8 mg/dL. For the same compound, the TP (time 28 day) was 6.1 g/dL and the gamma-GTP (time 28 day) was 1.2 IU/L.
